Results: article PMC8780434 (Viruses, 2022)
pIC50: −log10 of the molar value. Several values for one entry are separate records, joined by “and”; a condition that tells them apart may be missing. Identical values can stand only once. Like-named read-outs stand apart in the source and are kept apart here.

Key:
EV71 [1] = assay: FRET-based biosensor drug screening (HeLa-G2AwtR cells) for EV71 inhibitors; assay type: cell-based, EV71 (strain BrCr); details: Enterovirus A, read-out: inhibition rate
EV71 [2] = assay: Immunofluorescence assay (IFA) of anti-EV71 potency; assay type: cell-based, EV71 (strain BrCr); details: Enterovirus A, EV71 MOI 0.1, 12 h p.i.
[3] = human, 12 h, 10 μM
in vitro [4] = details: human
in vitro [5] = details: human; remark: listed apart in the source
EV71 [6] = assay: Western blot of viral VP1 in EV71-infected RD cells; details: for VP1/Tubulin (%): EV71 MOI 1, 6 h, DMSO = 100; for antiviral activity against EV71 infections, rank among SSRIs: 5 or 10 μM, Western blot
EV71 [7] = details: active in the range of several mM; cited from earlier work
[8] = Secondary screening cell cytotoxicity; details: at 10 μM, secondary screening criterion
EV71 [9] = assay: Time-of-addition assay (RT-qPCR of viral RNA); assay type: cell-based, EV71 (strain BrCr); details: RD cells, 10 μM, MOI 0.1, RT-qPCR
EV71 [10] = assay: Low-pH exposure assay (Western blot and plaque assay); assay type: cell-based, EV71 (strain BrCr); details: 10 μM; for times more viral titer than the sertraline-treated pH 7.4 control: 12 h
[11] = parameters: method as in earlier work; details: cited from earlier work
EV71 [12] = assay: Virus binding assay (RT-qPCR); details: RD cells, 5 or 10 μM, 0 °C 1 h, MOI 5
EV71 [13] = assay: Virus internalization assay (RT-qPCR); details: RD cells, 5 or 10 μM, 37 °C 1 h after binding, trypsinized, MOI 5
[14] = Cell viability assay (CellTiter 96 AQueous) in RD cells; details: human
[15] = Cell viability assay (CellTiter 96 AQueous) in HeLa cells; details: human
[16] = 5 μM drug, HeLa-G2AwtR cells, EV71 MOI 1, 12 h

COc1cccc2c1C(=O)c1c(O)c3c(c(O)c1C2=O)C[C@@](O)(C(C)=O)C[C@@H]3O[C@H]1C[C@H](N)[C@H](O)[C@H](C)O1 [daunorubicin]
inhibition at 5 µM (EV71 [1]; EV71, 12 h): > 50%

O=C1c2c(O)ccc(O)c2C(=O)c2c(NCCNCCO)ccc(NCCNCCO)c21 [mitoxantrone]
inhibition at 5 µM (EV71 [1]; [16]): > 50%

OC(c1cc(C(F)(F)F)nc2c(C(F)(F)F)cccc12)C1CCCCN1 (stereo not shown) [Mefloquine]
pIC50 (EV71 [2]; HeLa cells): 5.49 | pIC50 (EV71 [2]; RD cells): 5.41 | cell cytotoxicity [3]: < 20% | CC50 at 12 h (in vitro [4]): 30 µM | CC50 at 12 h (in vitro [5]): 29.8 µM

COCCCC/C(=N\OCCN)c1ccc(C(F)(F)F)cc1 [FLX, fluvoxamine]
VP1/Tubulin (%) (EV71 [6]; 5 μM): 82% | VP1/Tubulin (%) (EV71 [6]; 10 μM): 77% | antiviral activity against EV71 infections, rank among SSRIs (EV71 [6]): weakest antiviral activity

CN(C)CCCN1c2ccccc2Sc2ccc(Cl)cc21 [CPZ, chlorpromazine]
VP1/Tubulin (%) (EV71 [6]; 5 μM): 109% | VP1/Tubulin (%) (EV71 [6]; 10 μM): 54%

CCN(CC)CCCC(C)Nc1ccnc2cc(Cl)ccc12 (stereo not shown) [CQ, chloroquine]
VP1/Tubulin (%) (EV71 [6]; 5 μM): 52% | VP1/Tubulin (%) (EV71 [6]; 10 μM): 15%

Cl.N [NH4Cl]
antiviral effect compared with sertraline and chloroquine (EV71 [7]): much weaker antiviral effect

Nc1ccn([C@@H]2O[C@H](CO)[C@@H](O)C2(F)F)c(=O)n1 [gemcitabine]
inhibition at 5 µM (EV71 [1]; [16]): > 50%

Oc1c(Cl)cc(Cl)c(Cl)c1Cc1c(O)c(Cl)cc(Cl)c1Cl [Hexachorophene, Hexachlorophene]
cell cytotoxicity [8]: < 20%

CN[C@H]1CC[C@@H](c2ccc(Cl)c(Cl)c2)c2ccccc21 [Sertraline]
viral RNA levels, post-entry step (EV71 [9]; drug present 2-12 h): negligible effect | viral RNA levels, entry step (EV71 [9]; drug present -2 to 2 h): profound reduction | times more viral titer than the sertraline-treated pH 7.4 control (EV71 [10]; HeLa cells, pH 5 medium 10 min): 13.4 times | times more viral titer than the sertraline-treated pH 7.4 control (EV71 [10]; HeLa cells, pH 5.5 medium 10 min): 4 times | viral replication at the levels of viral protein after low-pH shocks (EV71 [10]; RD and HeLa cells, pH 5.5 and 5, 6 h p.i., Western blot): markedly rescued | times more viral titer than the sertraline-treated pH 7.4 control (EV71 [10]; RD cells, pH 5 medium 10 min): 16 times | times more viral titer than the sertraline-treated pH 7.4 control (EV71 [10]; RD cells, pH 5.5 medium 10 min): 5.7 times | cell cytotoxicity [3]: < 20% | maximum concentration in human plasma [11]: approximately 200 ng/mL and ~ 654 nM | viral RNA levels, virus binding, versus drug-free control (EV71 [12]): undetectable difference | viral RNA levels, virus internalization, versus drug-free control (EV71 [13]): undetectable difference | VP1/Tubulin (%) (EV71 [6]; 5 μM): 58% | VP1/Tubulin (%) (EV71 [6]; 10 μM): 10% | antiviral activity against EV71 infections, rank among SSRIs (EV71 [6]): strongest inhibitory effect

COc1cccc2c1C(=O)c1c(O)c3c(c(O)c1C2=O)C[C@@](O)(C(=O)CO)C[C@@H]3O[C@H]1C[C@H](N)[C@@H](O)[C@H](C)O1 [epirubicin]
inhibition at 5 µM (EV71 [1]; [16]): > 50%

OC(CNCC(O)C1CCc2cc(F)ccc2O1)C1CCc2cc(F)ccc2O1 (stereo not shown) [Nebivolol]
pIC50 (EV71 [2]; HeLa cells): 5.38 | pIC50 (EV71 [2]; RD cells): 5.32 | cell cytotoxicity [3]: < 20% | CC50 at 12 h (in vitro [4]): 32.9 µM | CC50 at 12 h (in vitro [5]): 32.7 µM

Fc1ccc([C@@H]2CCNC[C@H]2COc2ccc3c(c2)OCO3)cc1 [PAR, paroxetine]
VP1/Tubulin (%) (EV71 [6]; 5 μM): 74% | VP1/Tubulin (%) (EV71 [6]; 10 μM): 48%

COc1cccc2c1C(=O)c1c(O)c3c(c(O)c1C2=O)C[C@@](O)(C(=O)CO)C[C@@H]3O[C@H]1C[C@H](N)[C@H](O)[C@H](C)O1 [doxorubicin]
inhibition at 5 µM (EV71 [1]; [16]): > 50%

CCCCCCCCc1ccc(CCC(N)(CO)CO)cc1 [Fingolimod]
pIC50 (EV71 [2]; HeLa cells): 5.53 | pIC50 (EV71 [2]; RD cells): 5.44 | cell cytotoxicity [8]: < 20% | CC50 at 12 h [14]: 24.5 µM | CC50 at 12 h [15]: 21.8 µM

CC(=O)[C@]1(O)Cc2c(O)c3c(c(O)c2[C@@H](O[C@H]2C[C@H](N)[C@H](O)[C@H](C)O2)C1)C(=O)c1ccccc1C3=O [idarubicin]
inhibition at 5 µM (EV71 [1]; [16]): > 50%
